From patent US7772187B2, “Substances directed against a specific sequence essential for heparanase catalytic activity and uses thereof as heparanase inhibitors” (Hadasit Medical Research Services and Development Company, …, priority 2004, dated 2010)

Key:
[1] = test system: heparanase processing; assay: Heparanase processing in heparanase-transfected cells (immunoblot with antibody #1453); type: cell-based, human
Experimental: Total cell lysates were immunoblotted with anti-heparanase antibody #1453.
Total cell lysates were then analyzed for heparanase processing by immunoblotting as above.
Total cell lysates were analyzed by immunoblotting as above.
Cell extracts were prepared using a lysis buffer containing 50 mM Tris-HCl, pH 7.4, 150 mM NaCl, 0.5% Triton X-100, supplemented with a cocktail of protease inhibitors (Roche, Indianapolis, Ind.). Protein concentration was determined (Bradford reagent, BioRad, Hercules, Calif.) and 30 μg protein was resolved by SDS-PAGE under reducing conditions using 10% gels. After electrophoresis, proteins were transferred to PVDF membrane (BioRad) and probed with the appropriate antibody followed by HRP-conjugated secondary antibody (Jackson ImmunoResearch, West Grove, Pa.) and an enhanced chemiluminescent substrate (Pierce).

[2] = test system: heparanase processing; conditions: U87 glioma cells pre-treated with 100 μM for 2 hours
Experimental: The latent 65 kDa heparanase protein was then added for the indicated time points and total cell lysates were analyzed for heparanase processing by immunoblotting as above.
Cells were then fixed and immunostained with anti heparanase monoclonal antibody (BD, upper panel) and anti heparanase (733, second panel) antibodies. Merge images are shown at the third panel.
For uptake studies, the 65 kDa heparanase precursor was added to confluent cell cultures at a concentration of 1 μg/ml under serum-free conditions. At the indicated time points, the medium was aspirated, cells were washed twice with ice-cold PBS and total cell lysates were prepared as described. Heparanase uptake and processing were analyzed by immunoblotting with antibody #1453.

[3] = test system: heparanase processing
From the text: In order to further rule out the plasma membrane as the heparanase processing site, heparanase was targeted to the cell membrane by introducing the PDGF-R transmembrane domain at the heparanase C-terminus.

[4] = molecular target: T1, heparanase (Homo sapiens, UniProt Q9Y251); assay: Heparanase activity assay, purified/recombinant active heparanase on 35S-labeled ECM; type: biochemical; conditions: recombinant active heparanase 40 ng, 2 h, pH 7, 10 μg or 25 μg peptide, dose dependent, versus scrambled peptide
T1 construct: a heterodimer composed of the 8 kDa polypeptide non-covalently associated with the 50 kDa heparanase subunit; ImClone Systems Inc. (gift of Dr Miao, not purchased)
T1 sequence (Q9Y251 158-543 limits assumed): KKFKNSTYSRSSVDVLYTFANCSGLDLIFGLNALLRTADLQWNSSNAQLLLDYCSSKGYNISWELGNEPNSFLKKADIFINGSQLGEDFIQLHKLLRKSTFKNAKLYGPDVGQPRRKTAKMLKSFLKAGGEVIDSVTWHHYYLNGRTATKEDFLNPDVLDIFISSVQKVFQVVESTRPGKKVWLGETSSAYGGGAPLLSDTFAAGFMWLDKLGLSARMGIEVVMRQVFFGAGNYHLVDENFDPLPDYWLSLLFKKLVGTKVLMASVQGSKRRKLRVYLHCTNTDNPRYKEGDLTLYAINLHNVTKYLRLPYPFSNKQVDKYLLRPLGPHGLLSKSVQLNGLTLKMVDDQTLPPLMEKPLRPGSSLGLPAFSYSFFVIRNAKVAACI
T1 sequence (Q9Y251 36-109 partner limits assumed): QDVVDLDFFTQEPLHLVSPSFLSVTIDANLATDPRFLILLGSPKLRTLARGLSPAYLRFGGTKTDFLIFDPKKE
Experimental: FIG. 6A. Purified, active heparanase (20 ng) was added to 1 ml RPMI medium and incubated with affinity-purified antibody #733 (10 μg, ▴), or rabbit IgG (♦) for 1 hour on ice, followed by 1 hour incubation with ^35S-labeled ECM. Heparanase activity was determined as described in ‘Experimental procedures’.
A Purified, recombinant active heparanase (40 ng) was incubated (2 h, pH 7) with 10 μg (▴) or 25 μg (▪) of a peptide containing the amino acid sequence of residues 158 to 171, or with a control, scrambled, peptide (♦). Note a dose-responsive inhibition of heparanase activity upon treatment with the 158-171 peptide.
Preparation of ECM-coated dishes and determination of heparanase activity were performed as described in detail elsewhere [Vlodavsky, I. Current protocols in Cell Biology Vol. 1 pp. 10.14.11-10.14.14, John Wiley & Sons, New York (1999b); Goldshmidt, O. et al., J. Biol. Chem. 276, 29178-29187 (2001); Goldshmidt (2002) ibid.]. […]
To further investigate the importance of this sequence in heparanase catalytic activity, competition experiments were next performed. In these experiments, recombinant active heparanase (40 ng) was incubated (2 h, pH 7) with different concentrations of a peptide containing the amino acid sequence of residues 158 to 171, or with a control scrambled peptide (Scr), and enzymatic activity was determined. […]

[5] = molecular target: T2, heparanase (Homo sapiens, UniProt Q9Y251); conditions: literature (Miao 1999; Parish 1999; Vlodavsky 1994); cited from earlier work
T2 sequence (Q9Y251 36-543): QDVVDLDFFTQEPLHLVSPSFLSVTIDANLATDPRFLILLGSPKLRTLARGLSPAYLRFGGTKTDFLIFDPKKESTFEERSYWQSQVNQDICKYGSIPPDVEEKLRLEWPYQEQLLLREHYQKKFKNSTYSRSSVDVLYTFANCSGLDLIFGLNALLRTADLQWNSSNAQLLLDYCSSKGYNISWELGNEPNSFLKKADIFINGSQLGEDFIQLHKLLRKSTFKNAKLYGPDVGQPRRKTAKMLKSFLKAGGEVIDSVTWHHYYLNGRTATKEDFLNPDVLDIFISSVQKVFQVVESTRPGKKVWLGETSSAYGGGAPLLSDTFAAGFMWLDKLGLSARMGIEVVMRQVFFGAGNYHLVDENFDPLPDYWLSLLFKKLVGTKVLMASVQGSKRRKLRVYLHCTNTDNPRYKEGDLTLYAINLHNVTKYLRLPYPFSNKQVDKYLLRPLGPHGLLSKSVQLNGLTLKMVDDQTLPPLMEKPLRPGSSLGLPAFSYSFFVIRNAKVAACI

Compound: CO/C1=C\C(C)=C\[C@@H](C)[C@@H](O)[C@@H](C)C/C(C)=C/C=C/[C@H](OC)[C@@H]([C@@H](C)[C@@H](O)[C@H](C)[C@@]2(O)C[C@@H](O)[C@H](C)[C@@H](C(C)C)O2)OC1=O [bafilomycin A1]
- inhibition of heparanase processing ([1]; heparanase-transfected C6 glioma and NMU cells, indicated concentration (nM), 20 hours): complete inhibition
- concentration that completely inhibited heparanase processing ([1]; transfected C6 glioma and NMU cells, 20 hours): ≤ 250 nM

Compound: CCN(CC)CCCC(C)Nc1ccnc2cc(Cl)ccc12 (stereo not shown) [chloroquine]
- inhibition of processing of exogenously-added heparanase [2]: completely inhibited
- reversibility of the inhibition of heparanase processing ([1]; heparanase-transfected C6 glioma cells, 50 μM 20 hours, then 24 hours chase in chloroquine-free medium): reversible
- inhibition of heparanase processing ([1]; heparanase-transfected HEK-293, MDA-435, C6 and NMU cells, increasing concentrations, 20 hours, dose dependent): completely inhibited
- inhibition of processing of membrane-targeted heparanase [3]: completely abolished

Compound: KKFKNSTYSRSSVD (listed as Homo sapiens) [synthetic peptide of residues Lys158-Asp171 of human heparanase]
- inhibition of heparanase enzymatic activity [4]: significantly inhibited
- inhibition of heparanase enzymatic activity ([4]; listed as Synthetic Peptide Comprising Amino Acid Residues 158 to 171 of Heparanase): Completely Blocks

Compound: PI-88
- inhibition of heparanase activity [5]: inhibit heparanase activity

Compound: laminaran sulfate
- inhibition of heparanase activity [5]: inhibit heparanase activity
